These results are taken from PMC10648875 (Antimicrobial Agents and Chemotherapy, 2023).

Data set [1] deals with Escherichia coli NCTC 13353 (ECM7514), CTX-M-15. On the set-up: method as in earlier work. To be noted: quality control range; ref CLSI; cited from earlier work.
A further data set deals with PAM4792 producing OXA-2. Kind of data set: MIC, engineered isogenic strain. The class given is cell-based, P. aeruginosa. To be noted: OXA-2, class D; BLIs at fixed 4 µg/mL.
For another data set, the system named is PAM4217 producing OXA-48. Kind of data set: MIC, engineered isogenic strain. To be noted: OXA-48, class D; BLIs at fixed 4 µg/mL. The class given is cell-based, P. aeruginosa.
In data set [2] the test system is PAM4743 producing CTX-M-15. The experiment in a line: MIC, engineered isogenic strain. The format is cell-based, P. aeruginosa. To be noted: CTX-M-15, class A; BLIs at fixed 4 µg/mL.
The test system of a further data set is PAM4888 producing IMP-4. The experiment in a line: MIC, engineered isogenic strain. The class given is cell-based, P. aeruginosa. To be noted: IMP-4, class B; BLIs at fixed 4 µg/mL.
The subject of a further data set is PAM4875 producing OXA-23. The experiment in a line: MIC, engineered isogenic strain. The format is cell-based, P. aeruginosa. To be noted: OXA-23, class D; BLIs at fixed 4 µg/mL.
Data set [3] deals with Klebsiella pneumoniae ATCC 700603 (KPM2881), SHV-18. Also noted: method as in earlier work. To be noted: quality control range; ref CLSI; cited from earlier work.
Data set [4] deals with ESBL-producing Enterobacterales. The experiment in a line: organism not typed. The format is cell-based. To be noted: for MIC50: read-out: MIC50; for MIC90: read-out: MIC90.
The subject of data set [5] is NDM-9 (lysate of NDM-9-producing strain). To be noted: read-out: IC50 of inhibition of imipenem hydrolysis in cell lysates; cited from earlier work.
The conditions of data set [6]: cited from earlier work.
In a further data set the target is KPC-2 (Klebsiella pneumoniae, UniProt Q9F663). The experiment in a line: Ki app of β-lactamase inhibition, purified enzyme. The format is biochemical. To be noted: 10-minute preincubation; nitrocefin substrate.
The subject of data set [7] is K. pneumoniae ATCC BAA-1705 (KPM1123), KPC-2. Also noted: method as in earlier work. To be noted: quality control range; ref CLSI; cited from earlier work.
For data set [8], the system named is K. pneumoniae ATCC BAA-2814 (KP1074), KPC-3. Also noted: method as in earlier work. To be noted: quality control range; ref CLSI; cited from earlier work.
On the set-up of data set [9]: method as in PMID 31871094. To be noted: cited from earlier work.
The next data set deals with IMP-1 (Serratia marcescens, UniProt P52699). The experiment in a line: Ki of metallo-β-lactamase inhibition, purified enzyme. The format is biochemical. To be noted: 10-minute preincubation; imipenem substrate; read-out: Ki.
The next data set deals with IMP-26 (Pseudomonas aeruginosa, UniProt D0V558). Described as above. The class given is biochemical. To be noted: 10-minute preincubation; nitrocefin substrate.
For the next data set, the target named is SHV-12 (Klebsiella pneumoniae, UniProt P0AD64, E235K/G234S/L31Q). The experiment in a line: Ki app of β-lactamase inhibition, purified enzyme. To be noted: 10-minute preincubation; nitrocefin substrate; read-out: Ki app. The format is biochemical.

SMILES strings stand for the structures. In brackets after ≈: the same amount, converted by molar mass. Where only a bound is given, the exact number is not on record here.

Chain of IMP-26 (D0V558 entry or part of it): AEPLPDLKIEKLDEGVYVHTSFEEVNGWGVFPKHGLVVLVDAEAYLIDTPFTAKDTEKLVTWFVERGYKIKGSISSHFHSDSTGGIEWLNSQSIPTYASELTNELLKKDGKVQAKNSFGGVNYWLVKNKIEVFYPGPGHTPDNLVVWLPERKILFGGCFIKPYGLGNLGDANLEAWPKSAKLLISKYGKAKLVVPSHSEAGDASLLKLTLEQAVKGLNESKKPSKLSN
Chain of SHV-12 (P0AD64 22-286 L31Q/G234S/E235K): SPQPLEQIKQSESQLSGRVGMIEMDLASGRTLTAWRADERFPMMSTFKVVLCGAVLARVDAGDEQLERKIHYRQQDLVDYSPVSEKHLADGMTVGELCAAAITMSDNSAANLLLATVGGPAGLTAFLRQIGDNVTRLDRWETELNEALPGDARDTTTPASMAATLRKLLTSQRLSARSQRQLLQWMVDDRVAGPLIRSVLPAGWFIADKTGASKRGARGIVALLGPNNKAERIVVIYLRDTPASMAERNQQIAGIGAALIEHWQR
Chain of IMP-1 (P52699 19-246 limits assumed): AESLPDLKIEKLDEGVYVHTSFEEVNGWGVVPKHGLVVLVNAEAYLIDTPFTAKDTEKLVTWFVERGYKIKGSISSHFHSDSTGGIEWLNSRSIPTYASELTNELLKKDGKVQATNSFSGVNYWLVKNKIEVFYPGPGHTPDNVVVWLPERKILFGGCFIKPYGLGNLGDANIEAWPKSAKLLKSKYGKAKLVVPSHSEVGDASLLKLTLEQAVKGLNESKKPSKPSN
Chain of KPC-2 (Q9F663 25-293 limits assumed): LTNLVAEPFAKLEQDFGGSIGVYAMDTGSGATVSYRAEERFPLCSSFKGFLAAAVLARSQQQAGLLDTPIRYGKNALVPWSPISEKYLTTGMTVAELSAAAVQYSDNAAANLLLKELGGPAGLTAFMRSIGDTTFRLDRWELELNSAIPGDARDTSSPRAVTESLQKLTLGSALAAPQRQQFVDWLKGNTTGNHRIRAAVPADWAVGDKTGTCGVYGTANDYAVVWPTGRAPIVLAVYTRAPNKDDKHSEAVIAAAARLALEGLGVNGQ

Regarding `CO/N=C(\C(=O)N[C@@H]1C(=O)N2C(C(=O)[O-])=C(C[N+]3(C)CCCC3)CS[C@H]12)c1csc(N)n1` [FEP, cefepime], the “CLSI approved MIC range” value is more than 64 µg/mL in [1] and 0.5 to 2 µg/mL in [3]. The MIC (usually the lowest concentration that inhibits growth of the organism) in the data set with PAM4792 producing OXA-2 is 0.5 µg/mL (≈ 1.04 µM); with PAM4217 producing OXA-48, 0.5 µg/mL (≈ 1.04 µM); in data set [2], more than 64 µg/mL; in the data set with PAM4888 producing IMP-4, 32 µg/mL (≈ 66.6 µM); in the data set with PAM4875 producing OXA-23 it was 2 µg/mL (≈ 4.16 µM). In [4], the MIC50 (usually an inhibitory concentration at the 50% level, which refers to growth in some studies and to a panel of isolates in others) amounted to 16 µg/mL (≈ 33.3 µM). Moreover, the MIC90 (as a rule, the lowest concentration that inhibits either 90% of growth or 90% of the strains tested, depending on the study) in data set [4] was more than 64 µg/mL.
With `O=C(O)c1c(F)ccc2c1OB(O)[C@@H]1C[C@H]21` [Xeruborbactam, xeruborbactam], in data set [5], the IC50 (usually the midpoint of a concentration-inhibition curve) was 1200 ± 100 nM. Besides, the steady-state plasma concentration in data set [6] (phase I subjects, 500-mg loading dose then 250 mg every 8 hours by 3-hour infusion) is ~ 7 µg/mL. The safety and tolerability entry in data set [6] (phase I, intravenous or oral (prodrug), doses of 1,000 mg/day or less) is “safe and well tolerated”. Moreover, at KPC-2, the Ki came to 1.4 ± 0.2 nM.
With `C[C@@H](O)[C@H]1C(=O)N2C(C(=O)O)=C(S[C@@H]3CN[C@H](C(=O)N(C)C)C3)[C@H](C)[C@H]12` [MEM, meropenem], the figures for the “CLSI approved MIC range” value in data set [7] and in [8] were 8.0 to 64 µg/mL and 32 to 256 µg/mL, respectively. Besides, the MIC in the data set with PAM4792 producing OXA-2 is 2 µg/mL (≈ 5.22 µM); with PAM4217 producing OXA-48 it was 4 µg/mL (≈ 10.4 µM); in data set [2], 0.25 µg/mL (≈ 0.652 µM); against PAM4888 producing IMP-4 it was 4 µg/mL (≈ 10.4 µM); against PAM4875 producing OXA-23 it was 2 µg/mL (≈ 5.22 µM). Besides, in data set [4], the MIC50 is not above 0.03 µg/mL. For the same compound, in data set [4], the MIC90 is 0.06 µg/mL (≈ 0.156 µM).
With `NCCN[C@H]1CC[C@H](CC(=O)N[C@H]2Cc3cccc(C(=O)O)c3OB2O)CC1` [Taniborbactam, taniborbactam], the “concentration at which direct antibacterial activity is lacking” value in [9] is more than 512 µg/mL. For the same compound, the Ki at IMP-1 is more than 20000 nM; on IMP-26, more than 20000 nM; at SHV-12, 0.15 ± 0.03 nM.
